Values of other authors, collected in patent publication US10980267B2, “Molecular particle superior delivery system” (priority 2018, dated 2021).

Tests used:
[1] = especially child seizures
[2] = in humans, WHO report
[3] = consumed in foods and drinks

## C=C(C)[C@@H]1CCC(C)=C[C@H]1c1c(O)cc(CCCCC)cc1O [CBD, cannabidiol]
[1]
  effect on number of seizures: reduce the number of seizures
[2]
  abuse or dependence potential: no effects indicative of any abuse or dependence potential
[3]
  safety of consumption / toxicity: completely safe to consume in foods and drinks and is considered to be non-toxic
